{"source": "patent US20060069132A1", "about": "“Azolecarboxamide herbicides” (priority 2004, published 2006)", "key": {"cocklebur": {"tested_on": "cocklebur", "assay": "Test C pre-/postemergence herbicide test", "assay_type": "in vivo, Xanthium strumarium", "settings": "preemergence; for Plant response rating (0 = no effect, 100 = complete control), Cocklebur: 125 g ai/ha", "procedure,_shortened": "(§1)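 Visual ratings on a 0–100 scale (100 = complete control) made versus untreated controls after 12 to 14 greenhouse days. Test chemicals, formulated in surfactant-containing non-phytotoxic solvent, applied preemergence to planted seeds or postemergence to 1- to 4-leaf plants (2 to 18 cm).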"}, "goosegrass": {"tested_on": "goosegrass", "assay": "Test C pre-/postemergence herbicide test", "assay_type": "in vivo, Eleusine indica", "settings": "preemergence; for Plant response rating (0 = no effect, 100 = complete control), Goosegrass: 125 g ai/ha", "procedure,_shortened": "as §1"}, "lambsquarters": {"tested_on": "lambsquarters", "assay": "Test C pre-/postemergence herbicide test", "assay_type": "in vivo, Chenopodium album", "settings": "preemergence; for Plant response rating (0 = no effect, 100 = complete control), Lambsquarters: 125 g ai/ha", "procedure,_shortened": "as §1"}, "yellow nutsedge": {"tested_on": "yellow nutsedge", "assay": "Test C pre-/postemergence herbicide test", "assay_type": "in vivo, Cyperus esculentus", "settings": "preemergence; for Plant response rating (0 = no effect, 100 = complete control), Nutsedge, Yellow: 125 g ai/ha", "procedure,_shortened": "as §1"}, "soybean": {"tested_on": "soybean", "assay": "Test C pre-/postemergence herbicide test", "assay_type": "in vivo, Glycine max", "settings": "preemergence; for Plant response rating (0 = no effect, 100 = complete control), Soybean: 125 g ai/ha", "procedure,_shortened": "as §1"}, "[1]": {"tested_on": "common (oilseed) sunflower", "assay": "Test C pre-/postemergence herbicide test", "assay_type": "in vivo, Helianthus annuus", "settings": "preemergence", "procedure,_shortened": "as §1"}, "velvetleaf": {"tested_on": "velvetleaf", "assay": "Test C pre-/postemergence herbicide test", "assay_type": "in vivo, Abutilon theophrasti", "settings": "preemergence; for Plant response rating (0 = no effect, 100 = complete control), Velvetleaf: 125 g ai/ha", "procedure,_shortened": "as §1"}, "ducksalad": {"tested_on": "ducksalad", "assay": "Test C flooded paddy test", "assay_type": "in vivo, Heteranthera limosa", "settings": "for Plant response rating, Ducksalad: 500 g ai/ha, visual rating after 12 to 14 days"}, "barnyardgrass": {"tested_on": "barnyardgrass", "assay": "Test C flooded paddy test", "assay_type": "in vivo, Echinochloa crus-galli", "settings": "for Plant response rating, Barnyardgrass: 500 g ai/ha, visual rating after 12 to 14 days", "procedure,_shortened": "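Visual rating, 0 (no effect) to 100 (complete control), vs. controls at 12–14 d in greenhouse. Postemergence: 1–4-leaf plants, 2–18 cm. Paddy: flooded, barnyardgrass at 2-leaf stage.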"}, "[2]": {"settings": "500 g ai/ha, scale 0 to 100 (0 no effect, 100 complete control), visual, 12 to 14 days"}, "[3]": {"settings": "125 g ai/ha, scale 0 to 100 (0 no effect, 100 complete control)"}, "[4]": {"settings": "250 g ai/ha, scale of 0 to 100, 0 is no effect, 100 is complete control"}, "[5]": {"settings": "scale 0 to 100 (0 no effect, 100 complete control)"}, "[6]": {"settings": "62 g ai/ha, scale 0 to 100 (0 no effect, 100 complete control)"}}, "data": [{"smiles": "C=CCNC(=O)c1cccc(NC(=O)c2nn(C(C)C)nc2CC)c1", "note": "[Compound 382]", "values": [{"measurement": "Plant response rating, Cocklebur", "setting": "cocklebur; 62 g ai/ha, scale 0 to 100", "value": 0}, {"measurement": "Plant response rating (0 = no effect, 100 = complete control), Cocklebur", "setting": "cocklebur", "value": 15}, {"measurement": "Plant response rating, Cocklebur", "setting": "cocklebur; 250 g ai/ha, scale 0-100", "value": 20}, {"measurement": "Plant response rating, Cocklebur", "setting": "cocklebur; [2]", "value": 45}, {"measurement": "Plant response rating, Goosegrass", "setting": "goosegrass; 62 g ai/ha, scale 0 to 100", "value": 75}, {"measurement": "Plant response rating (0 = no effect, 100 = complete control), Goosegrass", "setting": "goosegrass", "value": 90}, {"measurement": "Plant response rating, Goosegrass", "setting": "goosegrass; 250 g ai/ha, scale 0-100", "value": 95}, {"measurement": "Plant response rating, Goosegrass", "setting": "goosegrass; [2]", "value": 100}, {"measurement": "Plant response rating, Lambsquarters", "setting": "lambsquarters; 62 g ai/ha, scale 0 to 100", "value": 90}, {"measurement": "Plant response rating (0 = no effect, 100 = complete control), Lambsquarters", "setting": "lambsquarters", "value": 100}, {"measurement": "Plant response rating, Lambsquarters", "setting": "lambsquarters; 250 g ai/ha, scale 0-100", "value": 100}, {"measurement": "Plant response rating, Lambsquarters", "setting": "lambsquarters; [2]", "value": 100}, {"measurement": "Plant response rating, Nutsedge, Yellow", "setting": "yellow nutsedge; 62 g ai/ha, scale 0 to 100", "value": 0}, {"measurement": "Plant response rating (0 = no effect, 100 = complete control), Nutsedge, Yellow", "setting": "yellow nutsedge", "value": 0}, {"measurement": "Plant response rating, Nutsedge, Yellow", "setting": "yellow nutsedge; 250 g ai/ha, scale 0-100", "value": 25}, {"measurement": "Plant response rating, Nutsedge, Yellow", "setting": "yellow nutsedge; [2]", "value": 60}, {"measurement": "Plant response rating, Soybean", "setting": "soybean; 62 g ai/ha, scale 0 to 100", "value": 100}, {"measurement": "Plant response rating (0 = no effect, 100 = complete control), Soybean", "setting": "soybean", "value": 100}, {"measurement": "Plant response rating, Soybean", "setting": "soybean; 250 g ai/ha, scale 0-100", "value": 100}, {"measurement": "Plant response rating, Soybean", "setting": "soybean; [2]", "value": 100}, {"measurement": "Plant response rating, Sunflower", "setting": "[1]; 62 g ai/ha, scale 0 to 100", "value": 0}, {"measurement": "Plant response rating, Sunflower", "setting": "[1]; 250 g ai/ha, scale 0-100", "value": 0}, {"measurement": "Plant response rating, Sunflower", "setting": "[1]; [2]", "value": 20}, {"measurement": "Plant response rating, Velvetleaf", "setting": "velvetleaf; 62 g ai/ha, scale 0 to 100", "value": 100}, {"measurement": "Plant response rating (0 = no effect, 100 = complete control), Velvetleaf", "setting": "velvetleaf", "value": 100}, {"measurement": "Plant response rating, Velvetleaf", "setting": "velvetleaf; 250 g ai/ha, scale 0-100", "value": 100}, {"measurement": "Plant response rating, Velvetleaf", "setting": "velvetleaf; [2]", "value": 100}, {"measurement": "Ducksalad plant response rating", "setting": "ducksalad; 62 g ai/ha, scale 0 to 100", "value": 25}, {"measurement": "Ducksalad plant response rating", "setting": "ducksalad; [3]", "value": 65}, {"measurement": "Ducksalad plant response rating", "setting": "ducksalad; [4]", "value": 80}, {"measurement": "Plant response rating, Ducksalad", "setting": "ducksalad; [5]", "value": 85}, {"measurement": "Barnyardgrass plant response rating", "setting": "barnyardgrass; [6]", "value": 10}, {"measurement": "Barnyardgrass plant response rating", "setting": "barnyardgrass; [3]", "value": 25}, {"measurement": "Barnyardgrass plant response rating", "setting": "barnyardgrass; [4]", "value": 65}, {"measurement": "Plant response rating, Barnyardgrass", "setting": "barnyardgrass; [5]", "value": 75}]}, {"smiles": "CCc1nn(C(C)C)nc1C(=O)Nc1cccc(C(=O)N(C)CC)c1", "note": "[Compound 386]", "values": [{"measurement": "Plant response rating, Cocklebur", "setting": "cocklebur; 62 g ai/ha, scale 0 to 100", "value": 0}, {"measurement": "Plant response rating (0 = no effect, 100 = complete control), Cocklebur", "setting": "cocklebur", "value": 20}, {"measurement": "Plant response rating, Cocklebur", "setting": "cocklebur; 250 g ai/ha, scale 0-100", "value": 30}, {"measurement": "Plant response rating, Cocklebur", "setting": "cocklebur; [2]", "value": 70}, {"measurement": "Plant response rating, Goosegrass", "setting": "goosegrass; 62 g ai/ha, scale 0 to 100", "value": 85}, {"measurement": "Plant response rating (0 = no effect, 100 = complete control), Goosegrass", "setting": "goosegrass", "value": 95}, {"measurement": "Plant response rating, Goosegrass", "setting": "goosegrass; 250 g ai/ha, scale 0-100", "value": 95}, {"measurement": "Plant response rating, Goosegrass", "setting": "goosegrass; [2]", "value": 95}, {"measurement": "Plant response rating, Lambsquarters", "setting": "lambsquarters; 62 g ai/ha, scale 0 to 100", "value": 100}, {"measurement": "Plant response rating (0 = no effect, 100 = complete control), Lambsquarters", "setting": "lambsquarters", "value": 100}, {"measurement": "Plant response rating, Lambsquarters", "setting": "lambsquarters; 250 g ai/ha, scale 0-100", "value": 100}, {"measurement": "Plant response rating, Lambsquarters", "setting": "lambsquarters; [2]", "value": 100}, {"measurement": "Plant response rating, Nutsedge, Yellow", "setting": "yellow nutsedge; 62 g ai/ha, scale 0 to 100", "value": 0}, {"measurement": "Plant response rating (0 = no effect, 100 = complete control), Nutsedge, Yellow", "setting": "yellow nutsedge", "value": 10}, {"measurement": "Plant response rating, Nutsedge, Yellow", "setting": "yellow nutsedge; 250 g ai/ha, scale 0-100", "value": 40}, {"measurement": "Plant response rating, Nutsedge, Yellow", "setting": "yellow nutsedge; [2]", "value": 60}, {"measurement": "Plant response rating, Soybean", "setting": "soybean; 62 g ai/ha, scale 0 to 100", "value": 90}, {"measurement": "Plant response rating (0 = no effect, 100 = complete control), Soybean", "setting": "soybean", "value": 90}, {"measurement": "Plant response rating, Soybean", "setting": "soybean; 250 g ai/ha, scale 0-100", "value": 95}, {"measurement": "Plant response rating, Soybean", "setting": "soybean; [2]", "value": 95}, {"measurement": "Plant response rating (0 = no effect, 100 = complete control), Sunflower", "setting": "[1]; 125 g ai/ha", "value": 40}, {"measurement": "Plant response rating, Sunflower", "setting": "[1]; 250 g ai/ha, scale 0-100", "value": 85}, {"measurement": "Plant response rating, Sunflower", "setting": "[1]; [2]", "value": 85}, {"measurement": "Plant response rating, Velvetleaf", "setting": "velvetleaf; 62 g ai/ha, scale 0 to 100", "value": 70}, {"measurement": "Plant response rating (0 = no effect, 100 = complete control), Velvetleaf", "setting": "velvetleaf", "value": 100}, {"measurement": "Plant response rating, Velvetleaf", "setting": "velvetleaf; 250 g ai/ha, scale 0-100", "value": 100}, {"measurement": "Plant response rating, Velvetleaf", "setting": "velvetleaf; [2]", "value": 100}, {"measurement": "Ducksalad plant response rating", "setting": "ducksalad; 62 g ai/ha, scale 0 to 100", "value": 25}, {"measurement": "Ducksalad plant response rating", "setting": "ducksalad; [3]", "value": 60}, {"measurement": "Ducksalad plant response rating", "setting": "ducksalad; [4]", "value": 85}, {"measurement": "Plant response rating, Ducksalad", "setting": "ducksalad; [5]", "value": 85}, {"measurement": "Barnyardgrass plant response rating", "setting": "barnyardgrass; [6]", "value": 30}, {"measurement": "Barnyardgrass plant response rating", "setting": "barnyardgrass; [3]", "value": 50}, {"measurement": "Barnyardgrass plant response rating", "setting": "barnyardgrass; [4]", "value": 80}, {"measurement": "Plant response rating, Barnyardgrass", "setting": "barnyardgrass; [5]", "value": 95}]}]}
